Data: PMC10178091, “The GRPR Antagonist [^99mTc]Tc-maSSS-PEG2-RM26 towards Phase I Clinical Trial: Kit Preparation, Characterization and Toxicity” (Diagnostics, 2023)
Where two headings read alike, the source gives them in different places. Where a SMILES comes first, the peptide text is derived from it. [ ]: non-standard residue; d: D form. The star is where a group is joined. Sta = CC(C)C[C@H](N)[C@@H](O)CC(=O)O; Mercaptoacetyl = O=C(CS)*; AEEA = NCCOCCOCC(=O)O

What was measured:
[1] = molecular target: GRPR; design: method as in PMID 33573232; details: cited from earlier work
[2] = design: method as in PMID 36980517; details: phase I clinical study; cited from earlier work
[3] = Ex vivo biodistribution / in vivo GRPR targeting in PC-3 tumor-bearing mice; design: species or system Balb/c nu/nu mice; details: mouse, total radioactivity, 1 h pi, n = 4; for tissue to tissue ratio at 1 h: 40 pmol, ± SD
Description: (§1) Randomly selected vials were stored at 4 °C at our laboratory for long-term testing. Within 18 months of storage, the vials were radiolabeled under the same conditions mentioned earlier. Additionally, the GRPR-binding in vitro was tested on a different batch of PC-3 cells, following the same protocol mentioned earlier. The in vivo GRPR-targeting properties of [^99mTc]Tc-maSSS-PEG2-RM26 were tested on PC-3 tumor-bearing Balb/c nu/nu mice (the cells (6 × 10^6 cells/mouse) were inoculated into the mice 4 weeks prior to the experiment). On the day of the experiment, when palpable tumors developed, a group of mice (n = 4) was injected with [^99mTc]Tc-maSSS-PEG2-RM26 (30 kBq/40 pmol) and another group (n = 4) was additionally co-injected with NOTA-PEG2-RM26 (5 nmol) to block GRPR. The mice were euthanized 1 h post-injection and the organs of interest were collected, weighed, and measured for their radioactivity content.

[4] = molecular target: T1, GRPR (Homo sapiens, UniProt P30550); test: as above; design: species or system Balb/c nu/nu mice; details: 1 h pi, kit stored 18 months, p < 0.001, n = 4
T1 construct: endogenous in cells; host or cells: PC-3 xenograft tumours in Balb/c nu/nu mice
T1 sequence (P30550 whole entry): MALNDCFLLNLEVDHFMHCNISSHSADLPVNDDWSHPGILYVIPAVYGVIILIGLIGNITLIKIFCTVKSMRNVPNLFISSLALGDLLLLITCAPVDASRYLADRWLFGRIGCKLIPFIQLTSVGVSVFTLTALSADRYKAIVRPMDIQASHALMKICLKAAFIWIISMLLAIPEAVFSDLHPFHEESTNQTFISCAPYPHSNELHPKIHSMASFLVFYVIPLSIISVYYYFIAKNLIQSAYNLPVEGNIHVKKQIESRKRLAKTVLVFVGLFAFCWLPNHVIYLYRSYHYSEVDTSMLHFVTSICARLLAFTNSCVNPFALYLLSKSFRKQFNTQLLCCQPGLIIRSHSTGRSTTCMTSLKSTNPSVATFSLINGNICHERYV
Description: as §1

[5] = system: GRPR; test: as above; design: species or system Balb/c nu/nu mice; details: 1 h pi, kit stored 18 months, p < 0.001, n = 4
Description: as §1

[6] = molecular target: T2, GRPR on PC-3 cells (Homo sapiens, UniProt P30550); test: In vitro binding specificity assay on PC-3 cells, with and without pre-blocking; details: 1 nM
T2 construct: endogenous in cells; host or cells: PC-3 cells
T2 sequence (P30550 whole entry): as above
Description: The radiolabeled peptide binding to GRPR was tested in PC-3 cells (GRPR +) by the addition of 1 nM of [^99mTc]Tc-maSSS-PEG2-RM26 to the cells (~10^6 cells, in triplicates), with and without pre-blocking of receptors, by the addition of 1 µM of NOTA-PEG2-RM26 (10 min at room temperature). After incubation at 37 °C for 1 h, the cells were treated with trypsin-EDTA, collected, and measured for their radioactivity content.
as §1

tissue uptake at 1 h ([3]; Balb/c nu/nu, blood, PC-3 xenografts, 40 pmol / 30 kBq co-injected with 5 nmol NOTA-PEG2-RM26, average ± SD, read-out: Uptake in blood, blocked): 0.3 ± 0.4 %ID/g | tissue uptake at 1 h ([3]; Balb/c nu/nu, bone, PC-3 xenografts, 40 pmol / 30 kBq co-injected with 5 nmol NOTA-PEG2-RM26, average ± SD, read-out: Uptake in bone, blocked): 0.042 ± 0.009 %ID/g | tissue uptake at 1 h ([3]; Balb/c nu/nu, kidneys, PC-3 xenografts, 40 pmol / 30 kBq co-injected with 5 nmol NOTA-PEG2-RM26, average ± SD, read-out: Uptake in kidneys, blocked): 5 ± 0.6 %ID/g | tissue uptake at 1 h ([3]; Balb/c nu/nu, liver, PC-3 xenografts, 40 pmol / 30 kBq co-injected with 5 nmol NOTA-PEG2-RM26, average ± SD, read-out: Uptake in liver, blocked): 1.7 ± 0.4 %ID/g | tissue uptake at 1 h ([3]; Balb/c nu/nu, muscle, PC-3 xenografts, 40 pmol / 30 kBq co-injected with 5 nmol NOTA-PEG2-RM26, average ± SD, read-out: Uptake in muscle, blocked): 0.032 ± 0.008 %ID/g | tissue uptake at 1 h ([3]; Balb/c nu/nu, pancreas, PC-3 xenografts, 40 pmol / 30 kBq co-injected with 5 nmol NOTA-PEG2-RM26, average ± SD, read-out: Uptake in pancreas, blocked): 1.4 ± 0.1 %ID/g | tissue uptake at 1 h ([3]; Balb/c nu/nu, spleen, PC-3 xenografts, 40 pmol / 30 kBq co-injected with 5 nmol NOTA-PEG2-RM26, average ± SD, read-out: Uptake in spleen, blocked): 0.13 ± 0.06 %ID/g | tissue to tissue ratio at 1 h ([3]; Balb/c nu/nu, tumor and blood, PC-3 xenografts, read-out: Tumor-to-blood ratio, non-blocked group): 30 ± 4 | tissue to tissue ratio at 1 h ([3]; Balb/c nu/nu, tumor and bone, PC-3 xenografts, read-out: Tumor-to-bone ratio, non-blocked group): 78 ± 42 | tissue to tissue ratio at 1 h ([3]; Balb/c nu/nu, tumor and kidneys, PC-3 xenografts, read-out: Tumor-to-kidneys ratio, non-blocked group): 1.3 ± 0.2 | tissue to tissue ratio at 1 h ([3]; Balb/c nu/nu, tumor and liver, PC-3 xenografts, read-out: Tumor-to-liver ratio, non-blocked group): 2 ± 0.4 | tissue to tissue ratio at 1 h ([3]; Balb/c nu/nu, tumor and muscle, PC-3 xenografts, read-out: Tumor-to-muscle ratio, non-blocked group): 125 ± 50 | tissue to tissue ratio at 1 h ([3]; Balb/c nu/nu, tumor and pancreas, PC-3 xenografts, read-out: Tumor-to-pancreas ratio, non-blocked group): 1.1 ± 0.2 | tissue to tissue ratio at 1 h ([3]; Balb/c nu/nu, tumor and spleen, PC-3 xenografts, read-out: Tumor-to-spleen ratio, non-blocked group): 51 ± 18 | tissue uptake at 1 h ([3]; Balb/c nu/nu, tumor, PC-3 xenografts, 40 pmol / 30 kBq co-injected with 5 nmol NOTA-PEG2-RM26, average ± SD, read-out: Uptake in tumor, blocked): 0.89 ± 0.07 %ID/g | tissue uptake at 1 h ([3]; blood, Balb/c nu/nu mice with PC-3 xenografts, 40 pmol / 30 kBq, kit stored 18 months, average ± SD, read-out: Uptake in blood, non-blocked): 0.3 ± 0.2 %ID/g | tissue uptake at 1 h ([3]; bone, Balb/c nu/nu mice with PC-3 xenografts, 40 pmol / 30 kBq, kit stored 18 months, average ± SD, read-out: Uptake in bone, non-blocked): 0.09 ± 0.05 %ID/g | tissue uptake at 1 h ([3]; kidneys, Balb/c nu/nu mice with PC-3 xenografts, 40 pmol / 30 kBq, kit stored 18 months, average ± SD, read-out: Uptake in kidneys, non-blocked): 5 ± 0.4 %ID/g | tissue uptake at 1 h ([3]; liver, Balb/c nu/nu mice with PC-3 xenografts, 40 pmol / 30 kBq, kit stored 18 months, average ± SD, read-out: Uptake in liver, non-blocked): 2.9 ± 0.8 %ID/g | tissue uptake at 1 h ([3]; muscle, Balb/c nu/nu mice with PC-3 xenografts, 40 pmol / 30 kBq, kit stored 18 months, average ± SD, read-out: Uptake in muscle, non-blocked): 0.05 ± 0.02 %ID/g | tissue uptake at 1 h ([3]; pancreas, Balb/c nu/nu mice with PC-3 xenografts, 40 pmol / 30 kBq, kit stored 18 months, average ± SD, read-out: Uptake in pancreas, non-blocked): 6 ± 1 %ID/g | tissue uptake at 1 h ([3]; spleen, Balb/c nu/nu mice with PC-3 xenografts, 40 pmol / 30 kBq, kit stored 18 months, average ± SD, read-out: Uptake in spleen, non-blocked): 0.13 ± 0.05 %ID/g | tissue uptake at 1 h ([3]; tumor, Balb/c nu/nu mice with PC-3 xenografts, 40 pmol / 30 kBq, kit stored 18 months, average ± SD, read-out: Uptake in tumor, non-blocked): 6 ± 1 %ID/g | Difference in PC-3 tumor uptake between non-blocked and blocked groups [4]: 6 fold | Cell-associated radioactivity, non-blocked versus pre-blocked receptors ([6]; freshly prepared kit, 1 h at 37 °C, pre-blocking with 1 µM NOTA-PEG2-RM26, p < 0.0001, n = 3): significant difference | Binding to non-blocked GRPR versus pre-blocked GRPR on PC-3 cells ([6]; kit stored for 18 months, purified with Sep-Pak, pre-blocking with 1 µM NOTA-PEG2-RM26): significantly higher
SMILES: CC(C)C[C@H](NC(=O)C[C@H](O)[C@H](CC(C)C)NC(=O)[C@H](Cc1c[nH]cn1)NC(=O)CNC(=O)[C@@H](NC(=O)[C@H](C)NC(=O)[C@H](Cc1c[nH]c2ccccc12)NC(=O)[C@H](CCC(N)=O)NC(=O)[C@@H](Cc1ccccc1)NC(=O)COCCOCCNC(=O)[C@H](CO)NC(=O)[C@H](CO)NC(=O)[C@H](CO)NC(=O)CS)C(C)C)C(N)=O [[^99mTc]Tc-maSSS-PEG2-RM26, metal not drawn] (Mercaptoacetyl-SSS[AEEA][dF]QWAVGH[Sta]L-NH2)
Equilibrium dissociation constant [1]: low nanomolar range | Absorbed doses in healthy organs and tissues [2]: low absorbed doses | Tolerability of single injections [2]: well tolerated | Difference in pancreatic uptake between non-blocked and blocked groups [5]: 4 fold
